Results reported in patent US20250177481A1, “SCO-spondin-derived polypeptides for enhancing synaptic transmission” (AXOLTIS PHARMA, priority 2021, published 2025).
Positions of bridges follow the written chain, without caps; N, C: chain ends. No end group written: not given here.

Key:
[1] = tested on: AMPAr currents in hippocampal CA1 pyramidal neurons; test: whole-cell patch-clamp, isolated AMPAr EPSCs evoked by Schaffer collateral stimulation (series 2); type: cell-based, C57Bl6/J mice; settings: after 10 min wash-out of NX218 250 μg/mL (T30); mean of 10 neurons
Source text: Twelve (C57Bl6/J) male mice 4-5 weeks-old were obtained from Charles River, France and housed in an animal facility. Animal care was compliant with national and local Ethics committee recommendations. Sagittal hippocampal brain slices were obtained using standard brain slicing methods (approximately 6 slices per mouse) (Knobloch et al. 2007). Mice were anesthetized with isoflurane and then decapitated. Brain was dissected out of the cranium and immediately immersed in ice-cold freshly prepared aCSF containing: 124 mM NaCl, 3.75 mM KCl, 2 mM MgSO4, 2 mM CaCl2, 26.5 mM NaHCO3, 1.25 mM NaH2PO4, 10 mM glucose, continuously oxygenated (pH=7.4) for a total duration of 3-4 minutes. Acute slices (350 μm thick) were prepared using a vibratome (VT 1000S; Leica Microsystems, Bannockburn, IL). Sections were incubated in standard aCSF at room temperature for at least 1 h before recordings. […]
The signal was amplified with an Axopatch 200B amplifier (Molecular Devices, Union City, CA), digitized by a Digidata 1550 interface (Molecular Devices) and […]. Recordings were acquired using Clampex (Molecular Devices) and analyzed with Clampfit (Molecular Devices). […]

[2] = tested on: scopolamine-induced spatial short-term working memory deficits in mice; test: Y-maze spontaneous alternation in the scopolamine mouse model of amnesia; type: in vivo, Swiss mice
Experimental: Male Swiss mice, weighing 30-35 g, from JANVIER (Saint Berthevin, France), were housed in groups with access to food and water ad libitum, except during behavioral experiments. They were kept in a temperature and humidity-controlled animal facility on a 12 h/12 h light/dark cycle (lights off at 07:[…]). Mice were numbered by marking their tail with permanent markers. All animal procedures were conducted in strict adherence to the European Union directive of Sep. 22, 2010 (2010/63/UE). In each cage (n=6 per cage), treatment regimen was the same. Animals were tested in a random and blind manner.
Donepezil (DPZ) used as positive control was administered per os at a dose of 1 mg/kg once 1 h before the YM test.
Scopolamine was administered at a dose of 0.5 mg/kg by subcutaneous injection 30 minutes before the YM session.
After administration of compounds at different timepoints all animals were tested for spontaneous alternation performance in the YM, an index of spatial working memory. The YM was designed according to Itoh and collaborators (1993) and Hiramatsu and Inoue (1999) and is made of grey polyvinylchloride. Each arm is 40-cm long, 13-cm high, 3-cm wide at the bottom, 10-cm wide at the top, and converging at an equal angle. Each mouse was placed at the end of one arm and allowed to move freely through the maze during an 8-min session. The series of arm entries, including possible returns into the same arm, were checked visually. An alternation was defined as entries into all three arms on consecutive occasions. The number of maximum alternations is therefore the total number of arm entries minus two and the percentage of alternation was calculated as (actual alternations/maximum alternations)×100. Parameters included the percentage of alternation, called memory index, and total number of arm entries, called exploration index (Maurice et al., 1996, 1988; Meunier et al., 2006; Villard et al., 2009, 2011).
Animals showing an extreme behavior (alternation percentage <20% or >90% or number of arm entries <10) would have been discarded from the calculation. No animal was discarded accordingly.

Substance: W-S-G-W-S-S-C-S-R-S-C-G [NX218] (WSGWSSCSRSCG; disulfide 7-11 (inferred))
- Amplitude of evoked isolated AMPA excitatory postsynaptic currents [1]: 153 pA
- effect on scopolamine-induced spatial short-term working memory impairments (Y-maze) ([2]; 2.5 mg/kg i.p. (lowest tested dose) 24 h before the test): efficacy was already demonstrated
- effect on scopolamine-induced spatial short-term working memory impairments (Y-maze) ([2]; 5 mg/kg i.p. 2 h before the test, data not shown): only partial
- effect on scopolamine-induced spatial short-term working memory impairments (Y-maze) ([2]; 5 mg/kg i.p. 24 h before the test, data not shown): complete reversal effect
- effect on scopolamine-induced spatial short-term working memory impairments (Y-maze) ([2]; 5 mg/kg i.p. 48 h before the test, data not shown): partially blocked
- effect on scopolamine-induced spatial short-term working memory impairments (Y-maze) ([2]; 10 mg/kg i.p. 48 h before the test, data not shown): completely counteracted
- effect on scopolamine-induced spatial short-term working memory impairments (Y-maze) ([2]; 15 mg/kg i.p. once 48 h before the test, data not shown): partially blocked
- dose with maximum effect on scopolamine-induced memory impairments (Y-maze) ([2]; i.p. once 24 h before the test, bell-shaped dose-response curve): 10 mg/kg
- spontaneous alternance in Y-maze ([2]; scopolamine + 10 mg/kg i.p. 24 h before test, scopolamine alone 45, control 70, n=6, 10 mg/kg): 71%
